Reference: patent US20240287138A1, “CYCLIC PEPTIDES FOR INHIBITING TNF RECEPTOR 1 ACTIVITY” (Merck Sharp & Dohme LLC, priority 2023, published 2024)
pIC50: −log10 of the molar value. Numbered stars: 1 amine (or outer) side, 2 acyl side, 3 side chain; on linkers, the order of the positions; unused ones are H or OH. Bridge positions count the residues as written; N and C are the ends. Square brackets hold non-standard residues; d marks the D form. Peptide text beside a SMILES is read from it. Trp(βS-Me,7-OMe) = COc1cccc2c([C@H](C)[C@H](N)C(=O)O)c[nH]c12; Trp(βS-Me) = C[C@@H](c1c[nH]c2ccccc12)[C@H](N)C(=O)O; Trp(7-CN) = N#Cc1cccc2c(C[C@H](N)C(=O)O)c[nH]c12; Trp(7-Cl) = N[C@@H](Cc1c[nH]c2c(Cl)cccc12)C(=O)O; Phe(3-CONH2) = NC(=O)c1cccc(C[C@H](N)C(=O)O)c1; Phe(4-CONH2) = NC(=O)c1ccc(C[C@H](N)C(=O)O)cc1; Phe(4-COOH) = N[C@@H](Cc1ccc(C(=O)O)cc1)C(=O)O; Trp(7-aza) = N[C@@H](Cc1c[nH]c2ncccc12)C(=O)O; Phe(4-CH2NH2) = NCc1ccc(C[C@H](N)C(=O)O)cc1; X23 = N[C@@H]1CCN([*:1])[C@H](C(=O)[*:2])C1; Pip(5R-OH) = O=C(O)[C@@H]1CC[C@@H](O)CN1; X1 = O=C([C@@H]1CC[C@H](N[*:1])C1)[*:2]; Nle(5,5-F2) = CC(F)(F)CC[C@H](N)C(=O)O; 2Nal = N[C@@H](Cc1ccc2ccccc2c1)C(=O)O; Pip(4-aza) = O=C(O)[C@@H]1CNCCN1; 4Pal = N[C@@H](Cc1ccncc1)C(=O)O; NMeE = CN[C@@H](CCC(=O)O)C(=O)O; dHyp = O=C(O)[C@H]1C[C@H](O)CN1; Cit = NC(=O)NCCC[C@H](N)C(=O)O; Pip = O=C(O)[C@@H]1CCCCN1; αMeS = C[C@](N)(CO)C(=O)O; Nle = CCCC[C@H](N)C(=O)O; Sar = CNCC(=O)O

What follows are molecules tested against T1, TNFα-induced NF-κB signal transduction pathway (TNFR1 signaling) in THP-1 cells (Homo sapiens, UniProt P19438) (assay: THP-1 Lucia NF-κB reporter cell assay, inhibition of TNFα-induced NF-κB signaling). Details: THP-1 NF-κB Lucia reporter cells, 10 ng/mL TNFα, 16-18 h, secreted luciferase; read-out: THP-1 IC50.
T1 sequence (P19438 30-455): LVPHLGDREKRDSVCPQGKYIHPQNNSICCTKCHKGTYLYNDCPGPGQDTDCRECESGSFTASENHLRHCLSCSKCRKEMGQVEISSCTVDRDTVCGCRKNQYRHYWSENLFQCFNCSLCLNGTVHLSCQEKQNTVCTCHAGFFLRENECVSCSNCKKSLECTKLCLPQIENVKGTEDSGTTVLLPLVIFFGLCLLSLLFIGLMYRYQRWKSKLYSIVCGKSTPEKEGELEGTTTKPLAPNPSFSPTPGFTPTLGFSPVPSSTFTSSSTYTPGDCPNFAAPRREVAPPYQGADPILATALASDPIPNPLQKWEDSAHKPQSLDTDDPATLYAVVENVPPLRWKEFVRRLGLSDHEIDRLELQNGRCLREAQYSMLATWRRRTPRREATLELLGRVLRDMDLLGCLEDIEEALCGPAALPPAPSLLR
Format: cell-based
In short: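 IC50 from a 4-parameter logistic fit of secreted luciferase luminescence (QUANTI-Luc), normalised to min/max controls. Reporter THP-1 cells were exposed to peptides for 1 h at 37 °C before 10 ng/mL TNFα (final) was added overnight (16–18 h).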

In order of rising pIC50:
1. C[C@@H](c1c[nH]c2ccccc12)[C@@H]1NC(=O)CN(C)C(=O)[C@H](Cc2ccc(CN)cc2)NC(=O)[C@H](Cc2ccc(C(=O)O)cc2)NC(=O)[C@](C)(CO)NC(=O)[C@H](Cc2ccc3ccccc3c2)NC(=O)[C@H](Cc2ccc(CN)cc2)NC(=O)[C@H](CC(N)=O)NC(=O)[C@H]2CCCN2C(=O)[C@H]([C@@H](C)c2c[nH]c3ccccc23)NC(=O)[C@H](CO)NC(=O)[C@H](Cc2ccc(CN)cc2)NC(=O)[C@H](CCCNC(N)=O)NC(=O)CSC[C@@H](C(N)=O)NC1=O [SEQ ID NO. 206] ({CH2CO}-[Cit][Phe(4-CH2NH2)]S[Trp(βS-Me)][dP]N[Phe(4-CH2NH2)][2Nal][αMeS][Phe(4-COOH)][Phe(4-CH2NH2)][Sar][Trp(βS-Me)]C-NH2; thioether N-14)  6.57
2. CCCC[C@@H]1NC(=O)CSC[C@@H](C(N)=O)NC(=O)[C@H]([C@@H](C)c2c[nH]c3c(OC)cccc23)NC(=O)CN(C)C(=O)[C@H](Cc2ccc(O)cc2)NC(=O)[C@H](Cc2ccc(C(=O)O)cc2)NC(=O)[C@](C)(CO)NC(=O)[C@H](Cc2c[nH]c3c(Cl)cccc23)NC(=O)[C@H](Cc2ccncc2)NC(=O)[C@H](CC(N)=O)NC(=O)[C@H](CCC(=O)O)N(C)C(=O)[C@H](Cc2c[nH]c3ccccc23)NC(=O)[C@@H]2C[C@H](N)CCN2C(=O)[C@H](Cc2ccncc2)NC1=O [SEQ ID NO. 271] ({CH2CO}-[Nle][4Pal][X23]W[NMeE]N[4Pal][Trp(7-Cl)][αMeS][Phe(4-COOH)]Y[Sar][Trp(βS-Me,7-OMe)]C-NH2; thioether N-14)  8.57
3. COc1cccc2c([C@H](C)[C@@H]3NC(=O)CN(C)C(=O)[C@H](Cc4ccc(O)cc4)NC(=O)[C@H](Cc4ccc(C(=O)O)cc4)NC(=O)[C@](C)(CO)NC(=O)[C@H](Cc4c[nH]c5c(Cl)cccc45)NC(=O)[C@H](Cc4ccncc4)NC(=O)[C@H](CC(N)=O)NC(=O)[C@H](CCC(=O)O)N(C)C(=O)[C@H](Cc4c[nH]c5ccccc45)NC(=O)[C@@H]4CNCCN4C(=O)[C@H](Cc4ccncc4)NC(=O)[C@H](CCC(C)(F)F)NC(=O)[C@@H]4CC[C@@H](C4)NC3=O)c[nH]c12 [SEQ ID NO. 275] (cyclo([4Pal][Trp(7-Cl)][αMeS][Phe(4-COOH)]Y[Sar][Trp(βS-Me,7-OMe)][X1][Nle(5,5-F2)][4Pal][Pip(4-aza)]W[NMeE]N))  8.85
4. CCCC[C@@H]1NC(=O)[C@@H]2CC[C@@H](C2)NC(=O)[C@H]([C@@H](C)c2c[nH]c3c(OC)cccc23)NC(=O)CN(C)C(=O)[C@H](Cc2cccc(C(N)=O)c2)NC(=O)[C@H](Cc2ccc(C(=O)O)cc2)NC(=O)[C@](C)(CO)NC(=O)[C@H](Cc2c[nH]c3c(Cl)cccc23)NC(=O)[C@H](Cc2ccncc2)NC(=O)[C@H](CC(N)=O)NC(=O)[C@H](CCC(=O)O)N(C)C(=O)[C@H](Cc2c[nH]c3ccccc23)NC(=O)[C@@H]2CCCCN2C(=O)[C@H](Cc2ccncc2)NC1=O [SEQ ID NO. 221] (cyclo([4Pal][Pip]W[NMeE]N[4Pal][Trp(7-Cl)][αMeS][Phe(4-COOH)][Phe(3-CONH2)][Sar][Trp(βS-Me,7-OMe)][X1][Nle]))  9.00
5. CCCC[C@@H]1NC(=O)[C@@H]2CC[C@@H](C2)NC(=O)[C@H]([C@@H](C)c2c[nH]c3c(OC)cccc23)NC(=O)CN(C)C(=O)[C@H](Cc2ccc(CN)cc2)NC(=O)[C@H](Cc2ccc(C(=O)O)cc2)NC(=O)[C@](C)(CO)NC(=O)[C@H](Cc2c[nH]c3c(Cl)cccc23)NC(=O)[C@H](Cc2ccncc2)NC(=O)[C@H](CC(N)=O)NC(=O)[C@H](CCC(=O)O)N(C)C(=O)[C@H](Cc2c[nH]c3ccccc23)NC(=O)[C@@H]2CNCCN2C(=O)[C@H](Cc2ccncc2)NC1=O [SEQ ID NO. 269] (cyclo([4Pal][Trp(7-Cl)][αMeS][Phe(4-COOH)][Phe(4-CH2NH2)][Sar][Trp(βS-Me,7-OMe)][X1][Nle][4Pal][Pip(4-aza)]W[NMeE]N))  9.00
6. CCCC[C@@H]1NC(=O)[C@@H]2CC[C@@H](C2)NC(=O)[C@H]([C@@H](C)c2c[nH]c3c(OC)cccc23)NC(=O)CN(C)C(=O)[C@H](Cc2ccc(C(N)=O)cc2)NC(=O)[C@H](Cc2ccc(C(N)=O)cc2)NC(=O)[C@](C)(CO)NC(=O)[C@H](Cc2c[nH]c3c(C#N)cccc23)NC(=O)[C@H](Cc2ccc(C(=O)O)cc2)NC(=O)[C@H](CC(N)=O)NC(=O)[C@H]2C[C@H](O)CN2C(=O)[C@H](Cc2c[nH]c3ncccc23)NC(=O)[C@@H]2CC[C@@H](O)CN2C(=O)[C@H](Cc2ccncc2)NC1=O [SEQ ID NO. 254] (cyclo([4Pal][Pip(5R-OH)][Trp(7-aza)][dHyp]N[Phe(4-COOH)][Trp(7-CN)][αMeS][Phe(4-CONH2)][Phe(4-CONH2)][Sar][Trp(βS-Me,7-OMe)][X1][Nle]))  9.40
